Patent US12391664B2, “GluN2C/D subunit selective antagonists of the N-methyl-D-aspartate receptor” (Emory University, priority 2018, dated 2025)
Where two headings read alike, the source gives them in different places.

Key:
Assay type in all cases: cell-based
[1] = target: T1, recombinant rat GluN1/GluN2B (Rattus norvegicus, UniProt Q00960); assay: Two-electrode voltage-clamp recordings in Xenopus laevis oocytes, GluN2B; details: for I3 μM/Icontrol (mean ± SEM, %) GluN2B: 3 μM compound with 100 μM glutamate and 30 μM glycine, control set as 1
T1 construct: expressed in transfected cells; host or cells: Xenopus laevis oocytes injected with cRNA (GluN1:GluN2 ratio 1:2)
Experimental: (§1) All target compounds were evaluated for activity by the Traynelis laboratory at Emory University using two-electrode voltage-clamp recordings performed in Xenopus laevis oocytes expressing recombinant GluN2A-D subunits (Table 1). […] Two ester compounds 997-65 and 997-66 also performed no inhibition at GluN2A to GluN2D receptors. […] Consequently, for the compounds that Acker et al. already published, it was necessary to increase the concentration to 100 μM when collecting data for a concentration effect curve. […] Therefore, under this condition, we can only conclude that compound 997-67 remained potent at GluN2C/D-containing receptors, but its selectivity over GluN2A- and GluN2B-containing receptors could not be compared to 997-57. […] Finally, replacing the carboxylic acid to the bio-isostere amide yielded compounds 997-96 and 997-115, which dropped the potency 2- to 4-fold in comparison to their corresponding acids 997-74 and 997-114.
(§2) Two-electrode voltage-clamp recordings were performed in Xenopus laevis oocytes that were injected with mRNA to express recombinant rat GluN1/GluN2A, GluN1/GluN2B, GluN1/GluN2C, and GluN1/GluN2D. The recordings using unfertilized oocytes from Xenopus laevis were permitted by Emory University Institutional Animal Care and Use Committee (IACUC). An automatic injector (Nanoject II, Drummond Scientific) was used for cRNA injection using the pipettes filled with mineral oil. The cRNA that transcribed in vitro via the mMessage Machine kit (Ambion) was diluted with nuclease-free water, and then injected at GluN1/GluN2 with a ratio of 1:2. The oocytes were stored in Barth's solution that contained 88 mM NaCl, 5.0 mM Tris-HCl, 2.4 mM NaHCO3, 1.0 mM KCl, 0.84 mM MgSO4, 0.41 mM CaCl2, 0.33 mM Ca(NO3)2, 0.1 mg/ml gentamycin sulfate, 1.0 U/ml penicillin, and 1 μg/ml streptomycin at a pH of 7.4 and temperatures of 15-17° C. for two to five days before the two-electrode voltage-clamp recordings. When recording, the oocytes were placed in a perfusion chamber and continually washed with the recording solution comprised of 90 mM NaCl, 1.0 mM KCl, 0.50 mM BaCl2, 0.005 mM EDTA, and 10 mM HEPES at a pH of 7.4 and a temperature of 23° C. Glass electrodes with a tip resistance of 0.5 to 2.5 MΩ were obtained from thin-walled glass capillary tubes. Voltage electrodes and current electrodes were filled with 0.3 M and 3.0 M KCl, respectively. The recordings were executed with the oocytes membrane potential holding at −40 m V by an OC-725 amplifier (Warner Instrument Co). All compounds were dissolved in dimethyl sulfoxide (DMSO) as 20 mM stock solutions and future diluted to reach the desired concentration (0.05-0.5% (vol/vol) DMSO) in recording solution comprised of 30 μM glycine and 100 μM glutamate. Each compound was recorded 3-7 times in the least 4 oocytes from at least 2 different Xenopus laevis.
(§3) To evaluate the inhibition of compounds, the concentration-response curve was fitted with the average two-electrode voltage-clamp recording results with the equation
(§4) [formula] • where IC50 is the concentration of compounds that inhibit half maximal of the current response and N is the Hill slope.

[2] = target: T2, recombinant rat GluN1/GluN2A (Rattus norvegicus, UniProt Q00959); assay: Two-electrode voltage-clamp recordings in Xenopus laevis oocytes, GluN2A; details: for GluN2A IC50: oocytes, 100 μM glutamate and 30 μM glycine; for I3 μM/Icontrol (mean ± SEM, %) GluN2A: 3 μM compound with 100 μM glutamate and 30 μM glycine, control set as 1
T2 construct: expressed in transfected cells; host or cells: Xenopus laevis oocytes injected with cRNA (GluN1:GluN2 ratio 1:2)
Experimental: as §1, §2, §3, §4

[3] = target: T3, recombinant rat GluN1/GluN2D (Rattus norvegicus, UniProt P35439+Q62645); assay: Two-electrode voltage-clamp recordings in Xenopus laevis oocytes, GluN2D
T3 construct: expressed in transfected cells; host or cells: Xenopus laevis oocytes injected with cRNA (GluN1:GluN2 ratio 1:2)
Experimental: as §1, §2, §3, §4

[4] = target: T4, recombinant rat GluN1/GluN2D (Rattus norvegicus, UniProt Q62645); assay: as above; details: for I3 μM/Icontrol (mean ± SEM, %) GluN2D: 3 μM compound with 100 μM glutamate and 30 μM glycine, control set as 1
T4 construct: expressed in transfected cells; host or cells: Xenopus laevis oocytes injected with cRNA (GluN1:GluN2 ratio 1:2)
Experimental: as §1, §2, §3, §4

[5] = target: T5, recombinant rat GluN1/GluN2C (Rattus norvegicus, UniProt P35439+Q00961); assay: Two-electrode voltage-clamp recordings in Xenopus laevis oocytes, GluN2C
T5 construct: expressed in transfected cells; host or cells: Xenopus laevis oocytes injected with cRNA (GluN1:GluN2 ratio 1:2)
Experimental: as §1, §2, §3, §4

[6] = target: T6, recombinant rat GluN1/GluN2C (Rattus norvegicus, UniProt Q00961); assay: as above; details: for I3 μM/Icontrol (mean ± SEM, %) GluN2C: 3 μM compound with 100 μM glutamate and 30 μM glycine, control set as 1
T6 construct: expressed in transfected cells; host or cells: Xenopus laevis oocytes injected with cRNA (GluN1:GluN2 ratio 1:2)
Experimental: as §1, §2, §3, §4

[7] = target: T7, recombinant rat GluN1/GluN2B (Rattus norvegicus, UniProt P35439+Q00960); assay: Two-electrode voltage-clamp recordings in Xenopus laevis oocytes, GluN2B; details: oocytes, 100 μM glutamate and 30 μM glycine
T7 construct: expressed in transfected cells; host or cells: Xenopus laevis oocytes injected with cRNA (GluN1:GluN2 ratio 1:2)
Experimental: as §1, §2, §3, §4

[8] = target: T8, recombinant rat GluN1/GluN2A (Rattus norvegicus, UniProt P35439+Q00959); assay: Two-electrode voltage-clamp recordings in Xenopus laevis oocytes, GluN2A; details: oocytes, 100 μM glutamate and 30 μM glycine
T8 construct: expressed in transfected cells; host or cells: Xenopus laevis oocytes injected with cRNA (GluN1:GluN2 ratio 1:2)
Experimental: as §1, §2, §3, §4

[9] = oocytes, 100 μM glutamate and 30 μM glycine
[10] = oocytes, 100 μM glutamate and 30 μM glycine, read-out: GluN2D IC50
[11] = oocytes, 100 μM glutamate and 30 μM glycine, read-out: GluN2C IC50
[12] = read-out: IC50 at GluN2D-containing receptors
[13] = mean IC50 with bottom and top 95% confidence interval, read-out: Avg. GluN2D IC50 (95% CI)
[14] = mean IC50 with bottom and top 95% confidence interval, read-out: Avg. GluN2C IC50 (95% CI)

T5 sequence (Q00961 20-1237, other chains not shown): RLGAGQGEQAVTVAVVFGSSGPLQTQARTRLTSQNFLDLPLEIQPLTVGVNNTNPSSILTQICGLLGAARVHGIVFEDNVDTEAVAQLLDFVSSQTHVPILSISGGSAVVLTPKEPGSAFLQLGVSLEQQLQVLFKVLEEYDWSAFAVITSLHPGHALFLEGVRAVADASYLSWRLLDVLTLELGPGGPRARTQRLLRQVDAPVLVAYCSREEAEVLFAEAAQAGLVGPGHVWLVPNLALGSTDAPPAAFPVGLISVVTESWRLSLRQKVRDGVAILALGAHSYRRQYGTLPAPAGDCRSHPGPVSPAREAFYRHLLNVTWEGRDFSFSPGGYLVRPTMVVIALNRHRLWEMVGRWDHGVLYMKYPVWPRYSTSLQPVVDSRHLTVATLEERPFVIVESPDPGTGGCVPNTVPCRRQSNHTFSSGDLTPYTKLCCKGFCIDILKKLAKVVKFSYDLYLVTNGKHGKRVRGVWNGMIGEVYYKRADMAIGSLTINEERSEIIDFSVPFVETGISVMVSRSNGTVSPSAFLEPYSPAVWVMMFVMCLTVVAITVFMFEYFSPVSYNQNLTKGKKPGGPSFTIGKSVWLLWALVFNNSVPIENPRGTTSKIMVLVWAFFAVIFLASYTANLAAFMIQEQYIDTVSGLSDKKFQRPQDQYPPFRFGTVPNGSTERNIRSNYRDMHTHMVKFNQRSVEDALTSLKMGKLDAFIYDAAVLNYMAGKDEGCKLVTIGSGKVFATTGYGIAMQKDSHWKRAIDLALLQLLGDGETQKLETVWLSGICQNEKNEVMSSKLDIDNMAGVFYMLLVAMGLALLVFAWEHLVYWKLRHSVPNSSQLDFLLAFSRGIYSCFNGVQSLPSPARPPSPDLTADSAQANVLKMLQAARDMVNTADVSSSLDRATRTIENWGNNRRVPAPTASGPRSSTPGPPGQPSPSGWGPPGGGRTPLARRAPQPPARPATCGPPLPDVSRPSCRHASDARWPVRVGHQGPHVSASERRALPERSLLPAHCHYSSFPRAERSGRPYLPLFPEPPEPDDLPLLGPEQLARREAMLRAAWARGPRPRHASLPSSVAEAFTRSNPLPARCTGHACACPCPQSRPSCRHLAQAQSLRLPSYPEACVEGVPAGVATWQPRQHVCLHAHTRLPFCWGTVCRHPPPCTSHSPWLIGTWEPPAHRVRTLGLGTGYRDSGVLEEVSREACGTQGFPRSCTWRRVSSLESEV
T6 sequence (Q00961 20-1237, other chains not shown): as above
T3 sequence (Q62645 28-1323, other chains not shown): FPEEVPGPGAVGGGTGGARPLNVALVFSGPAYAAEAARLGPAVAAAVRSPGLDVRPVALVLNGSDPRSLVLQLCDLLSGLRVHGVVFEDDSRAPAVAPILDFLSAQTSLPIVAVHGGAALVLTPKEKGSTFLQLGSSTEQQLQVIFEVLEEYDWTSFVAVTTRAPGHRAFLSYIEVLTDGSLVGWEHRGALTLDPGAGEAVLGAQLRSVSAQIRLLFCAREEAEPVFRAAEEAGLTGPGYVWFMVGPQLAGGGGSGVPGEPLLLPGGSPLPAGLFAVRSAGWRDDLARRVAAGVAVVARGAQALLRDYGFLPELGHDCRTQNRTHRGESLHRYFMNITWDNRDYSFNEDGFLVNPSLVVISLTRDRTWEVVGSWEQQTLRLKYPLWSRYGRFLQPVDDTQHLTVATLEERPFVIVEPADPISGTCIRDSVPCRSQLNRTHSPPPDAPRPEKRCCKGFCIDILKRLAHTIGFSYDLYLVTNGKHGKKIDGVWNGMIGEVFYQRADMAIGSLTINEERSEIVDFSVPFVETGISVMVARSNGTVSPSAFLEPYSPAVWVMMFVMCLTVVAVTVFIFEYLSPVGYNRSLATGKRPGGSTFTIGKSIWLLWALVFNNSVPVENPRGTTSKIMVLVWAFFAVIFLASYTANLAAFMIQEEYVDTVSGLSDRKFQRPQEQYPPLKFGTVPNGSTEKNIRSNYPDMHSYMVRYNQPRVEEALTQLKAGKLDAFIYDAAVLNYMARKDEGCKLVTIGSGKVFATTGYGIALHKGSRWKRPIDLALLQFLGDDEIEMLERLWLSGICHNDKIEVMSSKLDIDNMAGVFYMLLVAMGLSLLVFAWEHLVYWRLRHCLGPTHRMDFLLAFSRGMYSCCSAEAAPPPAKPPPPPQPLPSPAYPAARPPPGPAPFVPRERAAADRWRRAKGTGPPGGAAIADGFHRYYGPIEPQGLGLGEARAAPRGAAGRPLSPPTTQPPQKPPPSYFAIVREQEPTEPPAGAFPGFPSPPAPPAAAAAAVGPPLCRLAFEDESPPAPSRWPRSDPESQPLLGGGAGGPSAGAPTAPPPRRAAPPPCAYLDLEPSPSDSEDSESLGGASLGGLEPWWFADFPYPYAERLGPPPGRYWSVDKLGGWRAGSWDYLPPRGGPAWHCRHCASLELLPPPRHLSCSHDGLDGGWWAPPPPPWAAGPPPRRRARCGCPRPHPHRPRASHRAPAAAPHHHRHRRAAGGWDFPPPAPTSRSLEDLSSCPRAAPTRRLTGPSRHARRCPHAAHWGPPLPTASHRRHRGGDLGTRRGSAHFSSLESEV
T4 sequence (Q62645 28-1323, other chains not shown): as above
T2 sequence (Q00959 23-1464, other chains not shown): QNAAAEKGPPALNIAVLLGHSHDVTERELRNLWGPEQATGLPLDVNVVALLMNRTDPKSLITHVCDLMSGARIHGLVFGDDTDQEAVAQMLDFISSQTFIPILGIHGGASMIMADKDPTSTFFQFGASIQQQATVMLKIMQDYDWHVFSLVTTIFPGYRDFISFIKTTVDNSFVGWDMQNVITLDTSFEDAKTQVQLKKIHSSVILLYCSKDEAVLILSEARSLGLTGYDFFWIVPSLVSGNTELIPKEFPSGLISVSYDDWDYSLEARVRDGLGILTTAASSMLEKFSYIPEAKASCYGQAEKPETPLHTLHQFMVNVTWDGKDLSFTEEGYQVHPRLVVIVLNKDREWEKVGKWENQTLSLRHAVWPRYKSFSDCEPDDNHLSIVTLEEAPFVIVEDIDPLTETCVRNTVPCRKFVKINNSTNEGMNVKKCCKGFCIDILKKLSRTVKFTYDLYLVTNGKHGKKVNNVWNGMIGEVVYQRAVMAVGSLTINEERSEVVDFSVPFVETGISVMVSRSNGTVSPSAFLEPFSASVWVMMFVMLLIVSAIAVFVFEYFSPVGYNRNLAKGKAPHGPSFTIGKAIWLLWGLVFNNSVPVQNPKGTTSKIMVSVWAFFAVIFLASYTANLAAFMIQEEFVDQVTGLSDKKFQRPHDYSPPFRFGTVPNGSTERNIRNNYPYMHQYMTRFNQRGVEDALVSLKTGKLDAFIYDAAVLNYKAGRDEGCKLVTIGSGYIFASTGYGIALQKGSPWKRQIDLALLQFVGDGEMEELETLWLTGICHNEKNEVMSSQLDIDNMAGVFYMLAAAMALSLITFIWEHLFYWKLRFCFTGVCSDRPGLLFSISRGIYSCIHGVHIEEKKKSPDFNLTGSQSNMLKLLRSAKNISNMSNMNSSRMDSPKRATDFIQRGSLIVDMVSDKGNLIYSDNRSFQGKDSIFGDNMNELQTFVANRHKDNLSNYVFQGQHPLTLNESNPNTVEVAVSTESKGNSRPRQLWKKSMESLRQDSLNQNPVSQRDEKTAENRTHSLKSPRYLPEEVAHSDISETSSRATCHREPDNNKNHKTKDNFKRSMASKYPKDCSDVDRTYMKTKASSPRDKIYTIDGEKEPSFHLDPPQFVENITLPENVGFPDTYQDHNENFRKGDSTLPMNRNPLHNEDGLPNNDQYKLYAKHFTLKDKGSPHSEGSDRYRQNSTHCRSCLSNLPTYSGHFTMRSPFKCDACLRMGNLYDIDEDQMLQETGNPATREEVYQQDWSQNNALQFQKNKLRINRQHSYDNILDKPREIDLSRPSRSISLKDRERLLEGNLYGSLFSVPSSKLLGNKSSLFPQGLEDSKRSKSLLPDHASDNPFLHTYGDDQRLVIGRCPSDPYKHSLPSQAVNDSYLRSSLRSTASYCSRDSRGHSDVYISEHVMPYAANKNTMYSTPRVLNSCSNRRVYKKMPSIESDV

| SMILES | GluN2A IC50 [2] | IC50 [3, 10] [µM] | IC50 [5, 11] [µM] | IC50 [7] [µM] | further results |
| --- | --- | --- | --- | --- | --- |
| O=C(O)CCC(=O)N1N=C(c2c(-c3ccc(Cl)cc3)c3ccccc3[nH]c2=O)CC1c1ccc(Cl)nc1 (stereo not shown) [997-92, 4-(3-(4-(4-chlorophenyl)-2-oxo-1,2-dihydroquinolin-3-yl)-5-(6-chloropyridin-3-yl)-4,5-dihydro-1H-pyrazol-1-yl)-4-oxobutanoic acid] | NE (NE indicates less than 50% inhibition at 30 μM.) | 8 | 8 | – | GluN2B IC50 [1, 9]: NE (NE indicates less than 50% inhibition at 30 μM.); GluN2D IC50 [4, 9]: weak activity; GluN2C IC50 [6, 9]: weak activity |
| O=C(O)CC(F)(F)C(=O)N1N=C(c2c(-c3ccc(F)cc3)c3cc(F)ccc3[nH]c2=O)CC1c1ccc(Cl)cc1 (stereo not shown) [997-102, 4-(5-(4-chlorophenyl)-3-(6-fluoro-4-(4-fluorophenyl)-2-oxo-1,2-dihydroquinolin-3-yl)-4,5-dihydro-1H-pyrazol-1-yl)-3,3-difluoro-4-oxobutanoic acid] | – | – | 1 | 7.3 | IC50 [8]: 5.9 µM; IC50 [3, 12]: 0.4 µM |
| O=C(O)CC(F)(F)C(=O)N1N=C(c2ccccc2-c2ccc(Cl)cc2)CC1c1ccc(F)cc1 (stereo not shown) [997-116, 4-(3-(4′-chloro-[1,1′-biphenyl]-2-yl)-5-(4-fluorophenyl)-4,5-dihydro-1H-pyrazol-1-yl)-3,3-difluoro-4-oxobutanoic acid] | NE (NE indicates less than 50% inhibition at 30 μM.) | 7.41 | 12.1 | 23.1 | 2B IC50 / 2D IC50 ([4]; ratio of IC50 values): 3 |
| O=C(O)CC(F)(F)C(=O)N1N=C(c2ccccc2-c2cc(Cl)cc(Cl)c2)CC1c1ccc(Cl)cc1 (stereo not shown) [997-123, 4-(5-(4-chlorophenyl)-3-(3′,5′-dichloro-[1,1′-biphenyl]-2-yl)-4,5-dihydro-1H-pyrazol-1-yl)-3,3-difluoro-4-oxobutanoic acid] | NE (NE indicates less than 50% inhibition at 30 μM.) | 4.67 | 7.34 | 15.6 | – |
| O=C(O)CC(F)(F)C(=O)N1N=C(c2ccccc2-c2ccc(C(F)(F)F)cc2)CC1c1ccc(Cl)cc1 (stereo not shown) [997-124, 4-(5-(4-chlorophenyl)-3-(4′-(trifluoromethyl)-[1,1′-biphenyl]-2-yl)-4,5-dihydro-1H-pyrazol-1-yl)-3,3-difluoro-4-oxobutanoic acid] | NE (NE indicates less than 50% inhibition at 30 μM.) | 3.57 | 3.63 | 14.8 | – |
| O=C(O)CC(F)(F)C(=O)N1N=C(c2c(-c3ccc(Cl)cc3)c3ccccc3[nH]c2=O)C[C@@H]1c1ccc(Cl)cc1 [(+)-997-74] | – | 3.9 | 3.4 | – | I3 μM/Icontrol (mean ± SEM, %) GluN2B [1]: 87 ± 1.4%; I3 μM/Icontrol (mean ± SEM, %) GluN2A [2]: 95 ± 0.47%; IC50 [3, 13]: 2.24 µM; I3 μM/Icontrol (mean ± SEM, %) GluN2D [4]: 55 ± 2.7%; IC50 [5, 14]: 3.1 µM; I3 μM/Icontrol (mean ± SEM, %) GluN2C [6]: 56 ± 3.8% |
| O=C(O)CC(F)(F)C(=O)N1N=C(c2c(-c3ccc(Cl)cc3)c3ccccc3[nH]c2=O)C[C@H]1c1ccc(Cl)cc1 [(−)-997-74] | – | – | 0.094 | – | I3 μM/Icontrol (mean ± SEM, %) GluN2B [1]: 73 ± 4.8%; I3 μM/Icontrol (mean ± SEM, %) GluN2A [2]: 67 ± 3.9%; IC50 [3, 13]: 0.055 µM; IC50 [3, 12]: 0.046 µM; I3 μM/Icontrol (mean ± SEM, %) GluN2D [4]: 3.5 ± 1.0%; fold more potent than the (+)-enantiomer at GluN2D ([4]; (−)- versus (+)-enantiomer): 85 fold; IC50 [5, 14]: 0.11 µM; I3 μM/Icontrol (mean ± SEM, %) GluN2C [6]: 9.3 ± 1.8% |
